Data on 15 compounds can be found in ChEMBL document CHEMBL1150573, “Three new triterpenes from the seeds of Combretum quadrangulare and their hepatoprotective activity” (J Nat Prod, 2001).

Each structure is given as a SMILES string. Active and inactive are the calls of the source. The calls are words filed in the database; no cut-off is given here.

Assay [1] concerns Hepatocyte. The assay can be described thus: Hepatoprotective activity against D-galactosamine/TNFalpha-induced cell death in primary cultured mouse hepatocytes assessed as cell viability at 50 uM treated for 30 mins before TNFalpha challenge measured after 18 hrs by MTT assay relative to normal hepatocytes. As to conditions: read-out: Activity. Type of assay: functional.
For assay [2], the system named is Hepatocyte. Put plainly: Hepatoprotective activity against D-galactosamine/TNFalpha-induced cell death in primary cultured mouse hepatocytes assessed as cell viability at 25 uM treated for 30 mins before TNFalpha challenge measured after 18 hrs by MTT assay relative to normal hepatocytes. Type of assay: functional. Particulars: read-out: Activity.
Assay [3] has as its system Hepatocyte. Put plainly: Hepatoprotective activity against D-galactosamine/TNFalpha-induced cell death in primary cultured mouse hepatocytes at 100 uM treated for 30 mins before TNFalpha challenge measured after 18 hrs by MTT assay relative to control. Type of assay: functional.
In assay [4] the test system is Hepatocyte. Put plainly: Hepatoprotective activity against D-galactosamine/TNFalpha-induced cell death in primary cultured mouse hepatocytes assessed as cell viability at 100 uM treated for 30 mins before TNFalpha challenge measured after 18 hrs by MTT assay relative to normal hepatocytes. Type of assay: functional. Particulars: read-out: Activity.
Assay [5] relates to Hepatocyte. The assay can be described thus: Hepatoprotective activity against D-galactosamine/TNFalpha-induced cell death in primary cultured mouse hepatocytes at 25 uM treated for 30 mins before TNFalpha challenge measured after 18 hrs by MTT assay relative to control. It counts as functional.
Assay [6] deals with Hepatocyte. Put plainly: Hepatoprotective activity against D-galactosamine/TNFalpha-induced cell death in primary cultured mouse hepatocytes at 50 uM treated for 30 mins before TNFalpha challenge measured after 18 hrs by MTT assay relative to control. It counts as functional.
In assay [7] the test system is Hepatocyte. The assay can be described thus: Hepatoprotective activity against D-galactosamine/TNFalpha-induced cell death in primary cultured mouse hepatocytes treated for 30 mins before TNFalpha challenge measured after 18 hrs by MTT assay. Type of assay: functional, cell-based.

As to `CC1(C)CC[C@]2(C(=O)O)CC[C@]3(C)C(=CC[C@@H]4[C@@]5(C)C[C@@H](O)[C@H](O)C(C)(C)[C@@H]5[C@H](O)C[C@]43C)[C@@H]2[C@@H]1O`, in assay [1], the viability at 50 µM amounted to 24.7%. For the same compound, the viability at 25 µM in assay [2] is 24.2%. The inhibition at 100 µM in assay [3] is 24.4%. Moreover, in assay [4], the viability at 100 µM was found to be 26.1%. Moreover, the inhibition at 25 µM in assay [5] is 15.4%. Further, the inhibition at 50 µM in assay [6] came to 18%.

Regarding `CC1(C)[C@@H](O[C@H]2O[C@H](C(=O)O)[C@@H](O)[C@H](O)[C@H]2O[C@@H]2O[C@H](C(=O)O)[C@@H](O)[C@H](O)[C@H]2O)CC[C@]2(C)[C@H]3C(=O)C=C4[C@@H]5C[C@@](C)(C(=O)O)CC[C@]5(C)CC[C@@]4(C)[C@]3(C)CC[C@@H]12` [GLYCYRRHIZIN], in assay [7], the IC50 is > 200 µM.

Consider `COc1cc(C2Oc3cc([C@H]4Oc5cc(O)cc(O)c5C(=O)[C@@H]4O)ccc3OC2CO)ccc1O` (stereo not given in full) [SILIBININ], for which, in assay [1], the viability at 50 µM stood at 35.1%. Besides, in assay [2], the viability at 25 µM is 30.2%. In addition, the inhibition at 100 µM in assay [3] came out at 129%. In assay [4], the viability at 100 µM turned out to be 47.9%. Moreover, the inhibition at 25 µM in assay [5] worked out at 44.9%. In assay [7], this compound displayed an IC50 of 29.9 µM. Further, in assay [6], the inhibition at 50 µM was 68.2%.

In the case of `CC[C@H](CC[C@@H](C)[C@H]1CC[C@H]2[C@@H]3CC=C4C[C@@H](O)CC[C@]4(C)[C@H]3CC[C@]12C)C(C)C` [BETA-SITOSTEROL], the viability at 50 µM in assay [1] stood at 26.4%. In addition, the viability at 25 µM in assay [2] is 24.3%. In addition, in assay [3], the inhibition at 100 µM worked out at 32.5%. Further, the viability at 100 µM in assay [4] is 27.3%. In assay [5], the inhibition at 25 µM turned out to be 17.7%. For the same compound, the inhibition at 50 µM in assay [6] stood at 28.1%.

`C[C@H]1[C@H](C)CC[C@]2(C(=O)O[C@@H]3O[C@H](CO)[C@@H](O)[C@H](O)[C@H]3O)CC[C@]3(C)C(=CC[C@@H]4[C@@]5(C)C[C@@H](O)[C@H](O)[C@@](C)(CO)[C@@H]5CC[C@]43C)[C@H]12`: in assay [7], the result was inactive.

In the case of `C=C(C)[C@@H]1CC[C@]2(C(=O)O)CC[C@]3(C)[C@H](CC[C@@H]4[C@@]5(C)C[C@@H](O)[C@H](O)C(C)(C)[C@@H]5[C@H](O)C[C@]43C)[C@@H]12`, in assay [1], the viability at 50 µM was 28.4%. The viability at 25 µM in assay [2] came out at 22.2%. In assay [3], the inhibition at 100 µM was found to be 128%. Further, the viability at 100 µM in assay [4] came out at 47.6%. The inhibition at 25 µM in assay [5] worked out at 5.9%. Moreover, the IC50 in assay [7] is 60.9 µM. The inhibition at 50 µM in assay [6] came to 35.8%.

With `CC1=C2C3=CC[C@@H]4[C@@]5(C)C[C@@H](O)[C@H](O)[C@@](C)(CO)[C@@H]5[C@H](O)C[C@@]4(C)[C@]3(C)CC[C@@]2(C(=O)O[C@@H]2O[C@H](CO)[C@@H](O)[C@H](O)[C@H]2O)CC[C@H]1C`, the result in assay [7] was Active.

As for `C[C@@H]1CC[C@]2(C(=O)O[C@@H]3O[C@H](CO)[C@@H](O)[C@H](O)[C@H]3O)CC[C@]3(C)C(=CC[C@@H]4[C@@]5(C)C[C@@H](O)[C@H](O)[C@@](C)(CO)[C@@H]5CC[C@]43C)[C@@H]2[C@]1(C)O`, the result in assay [7] was inactive.

Regarding `CC1=C2C3=CC[C@@H]4[C@@]5(C)C[C@@H](O)[C@H](O)[C@@](C)(CO)[C@@H]5CC[C@@]4(C)[C@]3(C)CC[C@@]2(C(=O)O)CC[C@H]1C`, the viability at 50 µM in assay [1] was found to be 30.8%. Moreover, the viability at 25 µM in assay [2] is 29.4%. Further, the inhibition at 100 µM in assay [3] was 150%. In addition, the viability at 100 µM in assay [4] stood at 51.5%. For the same compound, the inhibition at 25 µM in assay [5] came out at 40.6%. The compound further showed an IC50 in assay [7] of 51 µM. Moreover, the inhibition at 50 µM in assay [6] turned out to be 47.4%.

Regarding `C[C@@H]1CC[C@]2(C(=O)O)CC[C@]3(C)C(=CC[C@@H]4[C@@]5(C)C[C@@H](O)[C@H](O)[C@@](C)(CO)[C@@H]5CC[C@]43C)[C@@H]2[C@]1(C)O`, the outcome in assay [7] was inactive.

With `C=C(C)[C@@H]1CC[C@]2(C(=O)O[C@@H]3O[C@H](CO)[C@@H](O)[C@H](O)[C@H]3O)CC[C@]3(C)[C@H](CC[C@@H]4[C@@]5(C)C[C@@H](O)[C@H](O)[C@@](C)(CO)[C@@H]5[C@H](O)C[C@]43C)[C@@H]12`, the outcome in assay [7] was Active.

On to `CC1(C)CC[C@]2(C(=O)O)CC[C@]3(C)C(=CC[C@@H]4[C@@]5(C)C[C@@H](O)[C@H](O)[C@@](C)(CO)[C@@H]5CC[C@]43C)[C@@H]2C1` [ARJUNOLIC ACID], for which, in assay [1], the viability at 50 µM stood at 28%. Also, the viability at 25 µM in assay [2] worked out at 24.9%. Besides, in assay [3], the inhibition at 100 µM turned out to be 108%. The viability at 100 µM in assay [4] is 43.6%. Also, the inhibition at 25 µM in assay [5] is 19.1%. Besides, the IC50 in assay [7] came out at 58.4 µM. In addition, the inhibition at 50 µM in assay [6] came out at 33.8%.

As for `C=C(C)[C@@H]1CC[C@]2(C(=O)O)CC[C@]3(C)[C@H](CC[C@@H]4[C@@]5(C)C[C@@H](O)[C@H](O)[C@@](C)(CO)[C@@H]5[C@H](O)C[C@]43C)[C@@H]12`, in assay [1], the viability at 50 µM is 30.6%. In addition, in assay [2], the viability at 25 µM came to 28.6%. Also, the inhibition at 100 µM in assay [3] is 71.7%. Moreover, in assay [4], the viability at 100 µM stood at 36%. Further, in assay [5], the inhibition at 25 µM stood at 36.4%. The IC50 in assay [7] was found to be 51.2 µM. Also, the inhibition at 50 µM in assay [6] worked out at 46.2%.

Consider `CC1(C)CC[C@]2(C(=O)O)CC[C@]3(C)C(=CC[C@@H]4[C@@]5(C)C[C@@H](O)[C@H](O)C(C)(C)[C@@H]5CC[C@]43C)[C@@H]2[C@@H]1O` [ARJUNIC ACID], for which the viability at 50 µM in assay [1] was 26.6%. Moreover, in assay [2], the viability at 25 µM turned out to be 26.5%. Further, in assay [3], the inhibition at 100 µM amounted to 32.9%. Moreover, in assay [4], the viability at 100 µM was 27.8%. For the same compound, the inhibition at 25 µM in assay [5] stood at 26.7%. Also, in assay [6], the inhibition at 50 µM came to 27%.

In the case of `C=C(C)[C@@H]1CC[C@]2(C(=O)O[C@@H]3O[C@H](CO)[C@@H](O)[C@H](O)[C@H]3O)CC[C@]3(C)[C@H](CC[C@@H]4[C@@]5(C)C[C@@H](O)[C@H](O)C(C)(C)[C@@H]5[C@H](O)C[C@]43C)[C@@H]12`, the outcome in assay [7] was Active.
